Results taken from US8476270B2, “Dihydropyrido[4,3-b]pyrazine-3-ones as modulators of toll-like receptors” (Gilead Sciences, Inc., priority 2009, dated 2013).

The molecules below were run on human Peripheral Blood Mononuclear Cell (PMBC) (assay: PBMC assay: cytokine (IFN-alpha) stimulation at 24 hours). Conditions: 24 hours incubation, IFN-alpha in supernatant (Luminex).
Format: cell-based
Description: PBMC Assay Protocol Assays were conducted to determine cytokine stimulation at 24 hours from human Peripheral Blood Mononuclear Cell (PMBC) using the compounds of the present invention. The assays were run in duplicate, with 8-point, half-log dilution curves. The compounds of the present invention were diluted from 10 mM DMSO solution. Cell supernatants are assayed directly for IFNa and 1:10 dilution for TNFa. The assays were performed in a similar fashion as described in Bioorg. Med. Chem. Lett. 16, 4559, (2006). Specifically, cryo-preserved PBMCs were thawed and seeded 96 well plates with 750,000 cells/well in 190 μL/well cell media. The PBMCs were then incubated for 1 hour at 37° C. at 5% CO2. Then, the compounds of the present invention were added in 10 μL cell media at 8 point, half-log dilution titration. The plates were incubated at 37° C. and 5% CO2 for 24 hours and then spinned at 1200 rpm for 10 min, which was followed by collecting supernatant and storing the same at −80° C. Cytokine secretion was assayed with Luminex and Upstate multi-plex kits, using a Luminex analysis instrument. IFN ECmax value for a compound was the concentration at which the compound stimulated maximum IFN-a production as determined using the assay method above.

Compound | MEC = minimum concentration for induction of IFN-alpha = 3-fold over background
CCCCOc1cc2c(c(N)n1)NC(=O)CN2Cc1cccc(CN2CCCC2)c1 [A] | d (d: 100 nM-1000 nM)
CCCCOc1cc2c(c(N)n1)NC(=O)CN2Cc1ccc(CN2CCCC2)cc1 [B] | c (c: 10 nM-99 nM)
COCCOc1cc2c(c(N)n1)NC(=O)CN2Cc1ccc(CN2CCCC2)cc1 [C] | a (a: = 1 nM)
COCCOc1nc(N)c2c(c1Cl)N(Cc1ccc(CN3CCCC3)cc1)CC(=O)N2 [D] | e (e: = 1000 nM)
CCCCOc1cc2c([nH]c(=O)c(=O)n2Cc2ccc(CN3CCCC3)cc2)c(N)n1 [E] | b (b: 1 nM-9 nM)
CCCCOc1cc2c([nH]c(=O)c(=O)n2Cc2ccc(-c3cccc(CN4CCCC4)c3)cc2)c(N)n1 [F] | c (c: 10 nM-99 nM)
CCCCOc1cc2c([nH]c(=O)c(=O)n2Cc2ccc(-c3ccc(CN4CCCC4)cc3)cc2)c(N)n1 [G] | c (c: 10 nM-99 nM)
